# Laboratory results published in US20200071380A1, “COMBINATION THERAPIES COMPRISING SIRP ALPHA-BASED CHIMERIC PROTEINS” (Shattuck Labs, Inc., priority 2018, published 2020).
# Tests used:
# parental CHOK1 cells = assay: Flow cytometry binding to parental CHOK1 cells
# Excerpt: Scale is shown and yellow arrows correspond with each identified monomer. A schematic of the hexamer species is shown to the right, depicting dimerization of the Fc domain and trimerization of the CD40L domain. […] Recombinant hSIRPα-Fc, hCD40L-Fc, and hIgG1 were used as positive controls. […] In both panels, the CHOK1 Parental is on the left and the CHOK1/hCD47 is on the right. […] For both graphs, the CHOK1 Parental is on the bottom. […] In this figure, the control is the top curve, the SIRPα-Fc-CD40L is the middle curve, and the anti-CD47 is the bottom curve.
# The extracellular domain (ECD) of SIRPα and the ECD of CD40L were fused via an antibody Fc domain to generate SIRPαECD-Fc-CD40LECD chimeric proteins. When human proteins were used, the chimeric protein is referred to as hSIRPα-Fc-CD40L; when murine proteins were used, the chimeric protein is referred to as and mSIRPα-Fc-CD40L. […] The purified protein was then analyzed for the presence of each individual domain by Western blotting using anti-SIRPα, anti-Fc, and anti-CD40L antibodies (FIG. 3A, bottom). […] Next, binding affinities for SIRPα-Fc-CD40L to recombinant CD47, CD40, or Fc receptors were evaluated by surface plasmon resonance (SPR). […] A functional ELISA evaluated whether SIRPα-Fc-CD40L could outcompete a commercially available single-sided SIRPα-Fc control for binding to recombinant CD47 (FIG. 3H).
# splenic dendritic cells = assay: In vivo splenic dendritic cell activation; design: species or system mice; conditions: versus antibody treated groups
# Method: For each panel, the samples are (left to right): untreated, sheep RBCs, αCD47 (MIAP301), αSIRPα (P84), mSIRPα-Fc-CD40L, mSIRPα-Fc-CD40L (24 Hrs), and αCD47 (MIAP301) (24 hrs). FIG. 9B is a quantitation of in vivo dendritic cell activation corresponding to FIG. 9A. Shown is the absolute percent of CD4+ and CD8+ dendritic cells; also gated on CD11c and DC1R2. In FIG. 9B, for each panel, the samples are (left to right): untreated, sheep RBCs, αCD47 (MIAP301), αSIRPα (P84), SIRPα-Fc-CD40L (150 μg), SIRPα-Fc-CD40L (300 μg), SIRPα-Fc-CD40L (300 μg) (24 Hrs), and αCD47 (MIAP301) (24 hrs).
# An in vivo assay to examine SIRPα/CD47 function in mice was describe in Yi et al., “Splenic Dendritic Cells Survey Red Blood Cells for Missing Self-CD47 to Trigger Adaptive Immune Responses. Immunity. 2015;43(4):764-75) (the contents of which is incorporated by reference in its entirety). This assay detects the activation status of splenic dendritic cells in response to SIRPa/CD47 inhibitors or to infused sheep red blood cells (RBC).
# After 6 or 24 hours, mice were euthanized and their spleens excised, dissociated, and assessed by flow cytometry for populations of activated CD4+ dendritic cells (DCs) (FIG. 9A, left panel) or CD8+dendritic cells (FIG. 9A, right panel); both populations of dendritic cells were also positive for MHC II (I-Ab), CD11c, and DC1R2.
# [1] = tested on: A431, HCC827, K562, HCC1954 and MCF7 cells; assay: Macrophage phagocytosis of EGFR/HER2 human tumor cell line panel; assay type: cell-based; conditions: variety of human tumor cell lines
# [2] = tested on: low Her2-expressing breast cancer cell line (MCF7); assay: Macrophage engulfment of MCF7 cells; assay type: cell-based, human; conditions: HER2LOW cell line MCF7
# [3] = tested on: human donor red blood cells (RBCs); assay: In vitro hemolysis assay, human erythrocytes; assay type: cell-based
# Method: FIG. 22B is a graph showing RBCs and test agents that were incubated at 37° C. for 24 hours and then the media was assessed at OD490 for changes in absorbance due to hemoglobin being released from lysing RBCs. […] FIG. 22D are graphs showing that peripheral blood was isolated from mice receiving three IP doses (300 μg) of the murine SIRPα-Fc-CD40L surrogate (arrows). Cell populations were assessed by flow cytometry and included CD20+ B cells, CD110+, CD4+/CD11c+, and CD8+/CD11c+ dendritic cells.
# However, the in vitro systems used to test this question have significant limitations, including a complete lack of macrophages in the test system.
substance,measurement,setting,value
SIRPα-Fc-CD40L: Generic name of the SIRPα ECD-Fc-CD40L ECD chimeric protein; human or murine version depending on the test system,binding to parental CHOK1 cells,parental CHOK1 cells,not to parental CHOK1 cells
same,proportion of overall splenic DCs,splenic dendritic cells,higher proportion of overall splenic DCs than was observed in the antibody treated groups
same,macrophage phagocytosis of tumor cells,[1],stimulated macrophage phagocytosis of tumor cells
same,phagocytosis,[2],demonstrated monotherapy activity
same,hemolysis in vitro,[3],did not reveal evidence of hemolysis
